From ChEMBL document CHEMBL3045151, “Long-term pre-exposure of the pest mite Tyrophagus putrescentiae to sub-lethal residues of bifenthrin on rapeseed did not affect its susceptibility to bifenthrin” (2011)
Calls of active or inactive are those of the source. The rule behind the calls is not given here.

Experiments:
Tyrophagus putrescentiae [1] = experiment: Insecticidal activity against Tyrophagus putrescentiae in compound treated rapeseed assessed as mortality (LD50) after 105 days (reference value: 0.78 ug/cm'2); format: functional
Tyrophagus putrescentiae [2] = experiment: Insecticidal activity against Tyrophagus putrescentiae in compound treated rapeseed assessed as mortality (LD50) after 84 days (reference value: 0.78 ug/cm'2); format: functional
Tyrophagus putrescentiae [3] = experiment: Insecticidal activity against Tyrophagus putrescentiae from compound treated origin in compound treated rapeseed assessed as increase in population rate at sub-lethal concentration at 25 degC, 85% RH measured after 147 days; format: functional, organism-based
Tyrophagus putrescentiae [4] = experiment: Insecticidal activity against Tyrophagus putrescentiae from control origin in compound treated rapeseed assessed as respiration ppm of co2 at sub-lethal concentration at 25 degC, 85% RH measured after 147 days; format: functional
Tyrophagus putrescentiae [5] = experiment: Insecticidal activity against Tyrophagus putrescentiae in compound treated rapeseed assessed as mortality (LD50) after 42 days (reference value: 0.78 ug/cm'2); format: functional
Tyrophagus putrescentiae [6] = experiment: Insecticidal activity against Tyrophagus putrescentiae in compound treated rapeseed assessed as mortality (LD95) after 42 days (reference value: 2.4 ug/cm'2); format: functional
Tyrophagus putrescentiae [7] = experiment: Insecticidal activity against Tyrophagus putrescentiae in compound treated rapeseed assessed as mortality (LD50) after 21 days (reference value: 0.78 ug/cm'2); format: functional
Tyrophagus putrescentiae [8] = experiment: Insecticidal activity against Tyrophagus putrescentiae in compound treated rapeseed assessed as mortality (LD50) after 63 days (reference value: 0.78 ug/cm'2); format: functional
Tyrophagus putrescentiae [9] = experiment: Insecticidal activity against Tyrophagus putrescentiae in compound treated rapeseed assessed as mortality after 147 days (reference value: 2.4 ug/cm'2); format: functional
Tyrophagus putrescentiae [10] = experiment: Insecticidal activity against Tyrophagus putrescentiae in compound treated rapeseed assessed as mortality (LD95) after 84 days (reference value: 2.4 ug/cm'2); format: functional
Tyrophagus putrescentiae [11] = experiment: Insecticidal activity against Tyrophagus putrescentiae in compound treated rapeseed assessed as mortality (LD95) after 63 days (reference value: 2.4 ug/cm'2); format: functional
Tyrophagus putrescentiae [12] = experiment: Insecticidal activity against Tyrophagus putrescentiae in compound treated rapeseed assessed as mortality (LD95) after 21 days (reference value: 2.4 ug/cm'2); format: functional
Tyrophagus putrescentiae [13] = experiment: Insecticidal activity against Tyrophagus putrescentiae in compound treated rapeseed assessed as decrease in population measured after 21 days; format: functional
Tyrophagus putrescentiae [14] = experiment: Insecticidal activity against Tyrophagus putrescentiae from control origin in compound treated rapeseed assessed as increase in population rate at sub-lethal concentration at 25 degC, 85% RH measured after 147 days; format: functional, organism-based
Tyrophagus putrescentiae [15] = experiment: Insecticidal activity against Tyrophagus putrescentiae from compound treated origin in compound treated rapeseed assessed as respiration ppm of co2 per gram of mite fresh weight per hr at sub-lethal concentration at 25 degC, 85% RH measured after 147 days; format: functional
Tyrophagus putrescentiae [16] = experiment: Insecticidal activity against Tyrophagus putrescentiae in compound treated rapeseed assessed as decrease in population at 0.15 to 150 ug/100 g of rapeseed measured after 21 days; format: functional, organism-based
Tyrophagus putrescentiae [17] = experiment: Insecticidal activity against Tyrophagus putrescentiae in compound treated rapeseed assessed as mortality (LD50) after 126 days (reference value: 0.78 ug/cm'2); format: functional
Tyrophagus putrescentiae [18] = experiment: Insecticidal activity against Tyrophagus putrescentiae in compound treated rapeseed assessed as mortality (LD95) after 105 days (reference value: 2.4 ug/cm'2); format: functional
Tyrophagus putrescentiae [19] = experiment: Insecticidal activity against Tyrophagus putrescentiae in compound treated rapeseed assessed as mortality (LD95) after 126 days (reference value: 2.4 ug/cm'2); format: functional
Tyrophagus putrescentiae [20] = experiment: Insecticidal activity against Tyrophagus putrescentiae in compound treated rapeseed assessed as mortality (LD50) after 147 days (reference value: 0.78 ug/cm'2); format: functional

Which LD50 (Tyrophagus putrescentiae [1]) does the source give for Cc1c(COC(=O)[C@@H]2[C@H](/C=C(\Cl)C(F)(F)F)C2(C)C)cccc1-c1ccccc1 [BIFENTHRIN] here?
The LD50 was 1.14 microg/cm2.

What about the LD50 (Tyrophagus putrescentiae [2]) of the same compound?
Its LD50 is 0.46 microg/cm2.

What about the Activity (Tyrophagus putrescentiae [3]) of the same compound?
Its Activity is “inactive”.

And the Activity (Tyrophagus putrescentiae [4])?
Its Activity is 896 ppm/g/hr.

What about the LD50 (Tyrophagus putrescentiae [5]) of the same compound?
The LD50 was 0.65 microg/cm2.

And the LD95 (Tyrophagus putrescentiae [6])?
Its LD95 is 2.4 microg/cm2.

What about the LD50 (Tyrophagus putrescentiae [7]) of the same compound?
Its LD50 is 0.44 microg/cm2.

And the LD50 (Tyrophagus putrescentiae [8])?
Its LD50 is 0.24 microg/cm2.

What about the LD95 (Tyrophagus putrescentiae [9]) of the same compound?
The LD95 was 1.8 microg/cm2.

And the LD95 (Tyrophagus putrescentiae [10])?
The LD95 was 2.3 microg/cm2.

And the LD95 (Tyrophagus putrescentiae [11])?
Its LD95 is 2 microg/cm2.

And the LD95 (Tyrophagus putrescentiae [12])?
Its LD95 is 1.6 microg/cm2.

And the ED50 (Tyrophagus putrescentiae [13])?
Its ED50 is 2.7 µg.

What about the Activity (Tyrophagus putrescentiae [14]) of the same compound?
Its Activity is “inactive”.

What about the Activity (Tyrophagus putrescentiae [15]) of the same compound?
Its Activity is 745 ppm/g/hr.

And the Activity (Tyrophagus putrescentiae [16])?
The Activity was “Active”.

And the LD50 (Tyrophagus putrescentiae [17])?
Its LD50 is 0.44 microg/cm2.

What about the LD95 (Tyrophagus putrescentiae [18]) of the same compound?
The LD95 was 2.9 microg/cm2.

And the LD95 (Tyrophagus putrescentiae [19])?
Its LD95 is 1.6 microg/cm2.

What about the LD50 (Tyrophagus putrescentiae [20]) of the same compound?
The LD50 was 0.16 microg/cm2.
